Results reported in patent US12661353B2, “SPT5 inhibitors and uses thereof” (Yeda Research and Development Co. Ltd., priority 2020, dated 2026).

Tests used:
[1] = tested on: pro-inflammatory genes A20, CCL20, IL6, IL8, CXCL2, JUNB and IEX1; test: mRNA levels of pro-inflammatory genes under basal conditions, HeLa, RT-qPCR; assay type: cell-based, human; details: HeLa cells, 2 hours, 50 μM SPI
Experimental: Cell culture—HEK293T, HeLa, MCF7, Jurkat and mouse embryonic fibroblasts (MEFs) cells were grown and maintained in Dulbecco's modified Eagle's medium supplemented with 10% fetal calf serum (Gibco) and 1% penicillin-streptomycin. To avoid NF-κB activity, HeLa cells were kept from reaching confluence and re-plated no more than 10 times following initial thawing. To induce NF-κB activity, cells were treated with […] recombinant human TNF-α (Peprotech) for the indicated times. STHdh Q111 and STHdh Q7 striatal cell lines (Coriell Institute for Medical Research) were grown in Dulbecco's modified Eagle's medium supplemented with 10% fetal calf serum (Gibco), 1% penicillin-streptomycin and 0.4 mg/ml G418 at 33° C. The cells were re-plated no more than 5-6 times, as recommended.
RNA analysis—Total RNA was extracted using Tri-reagent (Bio-Lab Chemicals) and Direct-Zol™ RNA MiniPrep kit (Zymo Research). Following, cDNA was synthesized from […] of total RNA using a High-Capacity cDNA Reverse Transcription Kit (ABI, Thermo Fisher Scientific). cDNA samples were analyzed by quantitative PCR (qPCR) in a ViiA 7 Real-Time PCR System using Fast qPCRBIO SYBR Green Mix (PCR Biosystems).
Thus, a subset of Spt5-responsive pro-inflammatory genes from the aforementioned studies and from others (Aida et al., 2006; Fujita et al., 2009), namely A20, CCL20, IL6, IL8, CXCL2, JUNB and IEX1, were selected and the effect of the identified SPIs on their expression under basal conditions and in response to NF-κB activation was tested (FIGS. 2A-C and 3A-C). Specifically, for analyzing expression under basal conditions, Hela cells were treated with vehicle (DMSO) or SPI for 2 hours and following RNA was extracted and analyzed by RT-qPCR.

wild type (Q7) Htt = test: Newly synthesized Htt transcripts, 4sU metabolic labeling, Q7 cells; assay type: cell-based, mouse; details: 4sU for 2 hours
Experimental: Metabolic labeling of newly synthesized RNA with 4-thiouridine (4sU)—STHdh Q111 and STHdh Q7 cells (collected from 10 cm dishes) were treated for 30 minutes with DMSO (vehicle control) or the tested SPI compound (e.g., SPJ-21). Following, 4-thiouridine (4sU, 150 μM final concentration) was added for additional 2 hours. The labeling was terminated by removing the 4sU-containing medium and washing the cells 3 times with phosphate-buffered saline (PBS). Total RNA was extracted as described above. 10 μg of RNA were biotinylated using biotin-HPDP (1:5; A8008, APExBIO) for 1.5 hours at room temperature and the biotinylated RNA was purified using chloroform and isopropanol extraction and dissolved in DEPC water. Following, the biotinylated RNA was captured by incubation with Streptavidin-coated magnetic beads (NEB, S1420S) for 30 minutes at room temperature in constant rotation. Bound RNA was eluted with 100 μl of 0.1 M fresh DTT. […]
Huntington's disease (HD) is an inherited genetic disorder caused by expansion trinucleotide CAG repeats (36 and higher) encoding glutamine (Q) in the huntingtin (Htt) gene. […] The two cell lines were treated for 48 hours with the identified SPIs and following the levels of Htt mRNA were determined. […] Moreover, the levels measured from the second exon relative to the first were fairly higher in Q7 compared to Q111 and this small difference was kept all along the gene. […]

COc1ccc(C=CC(=O)c2cc(O)ccc2O)cc1 [SPI-21]
Up-regulation of pro-inflammatory genes under basal conditions (i.e. inhibiting proximal promoter pausing of pro-inflammatory genes induced by Spt5) [1]: ++ (++ >3) | levels of newly synthesized Q7 Htt (wild type (Q7) Htt): not Q7 Htt were diminished
